According to US10975037B2 (priority 2018, dated 2021):
Counter-ions that a name gives are not always drawn. Like-named read-outs stand apart in the source and are kept apart here. Each block holds one compound with its values, some of them ahead of it.

Molecular target: full-length human RORγt (Homo sapiens (Human), UniProt P51449)
Experiment: RORγt (full-length human) reporter assay, conditions A or B, HEK293T cells
Type: cell-based
Details: for inhibition at 1 µM: 1 μM compound concentration (footnote ***); for inhibition at 2 µM: 2 μM compound concentration
Procedure: RORγt (Full-Length Human) Reporter Assay:
(§1) HEK293T cells were plated at 35,000 per well in 96-well plate in medium of DMEM with 10% FBS. […] After overnight (16 to 20 hours) incubation, media were removed and cells were lysed with 50 L Glo Lysis Buffer (Promega) for 10-15 minutes followed by 10 minute incubation with 50 μL Dual Glo reagent (Promega) at room temperature. Firefly luciferase luminescence was measured using a BMG Pherastar plate reader. To each well, 50 μL Stop and Glo reagent was added and incubated for 10 minutes at room temperature. Renilla luminescence was measured using a BMG Pherastar plate reader. To calculate the effect of compounds on RORγt activity, firefly values were normalized against values of DMSO only and values of reference compound at saturating concentration, then further normalized against Renilla signals. IC50s were generated by plotting final Renilla normalized data against compound concentration and percent inhibition was calculated against DMSO control.
as §1, with “at 8750 cells” for “at 35,000”, “in 384-well” for “in 96-well”, “with 20” for “with 50”, “well, 20” for “well, 50”

[1] = HEK-293T, read-out: RORγt (FL) Reporter Assay A or B, % inhibition
[2] = HEK-293T, 3 μM compound concentration (footnote *), read-out: RORγt (FL) Reporter Assay A or B, % inhibition

Chain of full-length human RORγt (P51449 other isoform, or with tags, fused parts or gaps): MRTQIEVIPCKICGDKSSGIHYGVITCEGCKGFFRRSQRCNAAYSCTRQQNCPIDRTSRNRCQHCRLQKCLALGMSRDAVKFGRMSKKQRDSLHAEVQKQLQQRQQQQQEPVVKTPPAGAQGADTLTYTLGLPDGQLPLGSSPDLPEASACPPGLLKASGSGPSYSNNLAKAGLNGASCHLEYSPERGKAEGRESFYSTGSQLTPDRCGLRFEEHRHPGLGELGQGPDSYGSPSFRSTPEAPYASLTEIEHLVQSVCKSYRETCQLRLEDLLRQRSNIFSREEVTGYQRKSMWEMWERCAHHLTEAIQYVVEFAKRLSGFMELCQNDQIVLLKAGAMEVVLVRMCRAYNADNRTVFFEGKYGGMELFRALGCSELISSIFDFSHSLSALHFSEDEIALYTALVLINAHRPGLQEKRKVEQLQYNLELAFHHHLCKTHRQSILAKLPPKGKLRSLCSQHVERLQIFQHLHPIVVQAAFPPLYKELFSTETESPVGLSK

Structure (SMILES): CCn1nc(C(=O)NC[C@]2(O)CC[C@@H](S(C)(=O)=O)CC2)c(Cl)c1-c1ccc(C(C)(O)CCC(F)(F)F)cc1OC(F)F (stereo partly shown) [Example 101, 4-Chloro-5-(2-(difluoromethoxy)-4-(5,5,5-trifluoro-2-hydroxypentan-2-yl)phenyl)-1-ethyl-N-(((1s,4s)-1-hydroxy-4-(methylsulfonyl)cyclohexyl)methyl)-1H-pyrazole-3-carboxamide]
- inhibition at 3 µM [2]: 115%

Structure (SMILES): CCn1nc(C(=O)NC[C@]2(N)CC[C@H](S(C)(=O)=O)CC2)c(Cl)c1-c1ccc(CC(C)(C)C(F)(F)F)cc1OC(F)F [Example 20, N-(((1r*,4r*)-1-Amino-4-(methylsulfonyl)cyclohexyl)methyl)-4-chloro-5-(2-(difluoromethoxy)-4-(3,3,3-trifluoro-2,2-dimethylpropyl)phenyl)-1-ethyl-1H-pyrazole-3-carboxamide 2,2,2-trifluoroacetic Acid Salt]
- inhibition at 3 µM [2]: 15%

Structure (SMILES): CCOC(=O)[C@]1(CNC(=O)c2nn(CC)c(-c3ccc(CC(C)(C)C(F)(F)F)cc3OC(F)F)c2Cl)CC[C@H](S(C)(=O)=O)CC1 [Example 118, Ethyl (1s*,4s*)-1-((4-chloro-5-(2-(difluoromethoxy)-4-(3,3,3-trifluoro-2,2-dimethylpropyl)phenyl)-1-ethyl-1H-pyrazole-3-carboxamido)methyl)-4-(methylsulfonyl)cyclohexane-1-carboxylate]
- inhibition at 2 µM [1]: 103%
- IC50 (RORγt (FL) Reporter Assay A or B, IC50, HEK293T cells): 2.4 nM

Structure (SMILES): CCn1nc(C(=O)NC[C@]2(O)CC[C@@H](S(C)(=O)=O)CC2)c(Cl)c1-c1ccc(C(O)C2(C(F)(F)F)CC2)cc1OC(F)F (stereo partly shown) [Example 109, 4-Chloro-5-(2-(difluoromethoxy)-4-(hydroxy(1-(trifluoromethyl)cyclopropyl)methyl)phenyl)-1-ethyl-N-(((1s,4s)-1-hydroxy-4-(methylsulfonyl)cyclohexyl)methyl)-1H-pyrazole-3-carboxamide]
- inhibition at 3 µM [1]: 88%

Structure (SMILES): CCn1nc(C(=O)NC[C@]2(O)CC[C@@H](S(C)(=O)=O)CC2)c(Cl)c1-c1ccc([C@H](O)C2(C(F)(F)F)CC2)cc1OC(F)F (single isomer, unassigned) [Example 110, 4-Chloro-5-(2-(difluoromethoxy)-4-((S*)-hydroxy(1-(trifluoromethyl)cyclopropyl)methyl)phenyl)-1-ethyl-N-(((1s,4R)-1-hydroxy-4-(methylsulfonyl)cyclohexyl)methyl)-1H-pyrazole-3-carboxamide]
- inhibition at 1 µM [1]: 75%

Structure (SMILES): CCn1nc(C(=O)NC[C@H]2CC[C@H](S(C)(=O)=O)CC2)c(Cl)c1-c1ccc(OCC2CC2(F)F)cc1OC (stereo partly shown) [Example 209, 4-Chloro-5-(4-((2,2-difluorocyclopropyl)methoxy)-2-methoxyphenyl)-1-ethyl-N-(((1r,4r)-4-(methylsulfonyl)cyclohexyl)methyl)-1H-pyrazole-3-carboxamide]
- inhibition at 2 µM [1]: 82%

Structure (SMILES): CCn1nc(C(=O)NC[C@]2(O)CC[C@@H](S(C)(=O)=O)CC2)c(Cl)c1-c1ccc([C@](C)(O)CCC(F)(F)F)cc1OC(F)F (relative stereo) [Example 103, 4-Chloro-5-(2-(difluoromethoxy)-4-((R*)-5-trifluoro-2-hydroxypentan-2-yl)phenyl)-1-ethyl-N-(((1s,4S)-1-hydroxy-4-(methylsulfonyl)cyclohexyl)methyl)-1H-pyrazole-3-carboxamide]
- inhibition at 3 µM [2]: 107%

Structure (SMILES): CCn1nc(C(=O)NC[C@]2(O)CC[C@@H](S(C)(=O)=O)CC2)c(Cl)c1-c1ccc([C@@H](O)C2(C(F)(F)F)CC2)cc1OC(F)F (single isomer, unassigned) [Example 111, 4-Chloro-5-(2-(difluoromethoxy)-4-((R*)-hydroxy(1-(trifluoromethyl)cyclopropyl)methyl)phenyl)-1-ethyl-N-(((1s,4S)-1-hydroxy-4-(methylsulfonyl)cyclohexyl)methyl)-1H-pyrazole-3-carboxamide]
- inhibition at 1 µM [1]: 95%

Structure (SMILES): CCn1nc(C(=O)NC[C@H]2CC[C@H](S(C)(=O)=O)CC2)c(Cl)c1-c1ccc(OC[C@@H]2CC2(F)F)cc1OC (single isomer, unassigned) [Example 210, 4-Chloro-5-(4-(((S*)-2,2-difluorocyclopropyl)methoxy)-2-methoxyphenyl)-1-ethyl-N-(((1r,4R)-4-(methylsulfonyl)cyclohexyl)methyl)-1H-pyrazole-3-carboxamide]
- inhibition at 2 µM [1]: 77%

Now from value to compound:

- inhibition at 3 µM [1]: 104%
Structure (SMILES): CCn1nc(C(=O)NC[C@]2(O)CC[C@@H](S(C)(=O)=O)CC2)c(Cl)c1-c1ccc([C@H](O)C(C)(C)C(F)(F)F)cc1OC(F)F (single isomer, unassigned) [Example 107, 4-Chloro-5-(2-(difluoromethoxy)-4-((S*)-3,3,3-trifluoro-1-hydroxy-2,2-dimethylpropyl)phenyl)-1-ethyl-N-(((1s,4R)-1-hydroxy-4-(methylsulfonyl)cyclohexyl)methyl)-1H-pyrazole-3-carboxamide]

- inhibition at […] (HEK-293T, 0.33 μM compound concentration (footnote *****), read-out: RORγt (FL) Reporter Assay A or B, % inhibition): 87%
Structure (SMILES): CCn1nc(C(=O)NC[C@]2(O)CC[C@@H](S(C)(=O)=O)CC2)c(C)c1-c1ccc(C[C@@H](C)C(F)(F)F)cc1OC(F)F [Example 142, 5-(2-(Difluoromethoxy)-4-((R)-3,3,3-trifluoro-2-methylpropyl)phenyl)-1-ethyl-N-(((1s,4S)-1-hydroxy-4-(methylsulfonyl)cyclohexyl)methyl)-4-methyl-1H-pyrazole-3-carboxamide]

- inhibition at 1 µM [1]: 115%
Structure (SMILES): CCn1nc(C(=O)NC[C@]2(O)CC[C@@H](S(C)(=O)=O)CC2)c(Cl)c1-c1ccc(C(O)C(C)(C)C(F)(F)F)cc1OC(F)F (stereo partly shown) [Example 106, 4-Chloro-5-(2-(difluoromethoxy)-4-(3,3,3-trifluoro-1-hydroxy-2,2-dimethylpropyl)phenyl)-1-ethyl-N-(((1s,4s)-1-hydroxy-4-(methylsulfonyl)cyclohexyl)methyl)-1H-pyrazole-3-carboxamide]

- inhibition at 2 µM [1]: 88%
Structure (SMILES): CCn1nc(C(=O)NC[C@]2(O)CC[C@@H](S(C)(=O)=O)CC2)c(Cl)c1-c1ccc(CC(C)(C)C(F)(F)F)cc1OC [Example 45, 4-Chloro-1-ethyl-N-(((1s,4s)-1-hydroxy-4-(methylsulfonyl)cyclohexyl)methyl)-5-(2-methoxy-4-(3,3,3-trifluoro-2,2-dimethylpropyl)phenyl)-1H-pyrazole-3-carboxamide]

- inhibition at 2 µM [1]: 101%
Structure (SMILES): CCn1nc(C(=O)NC[C@]2(O)CC[C@@H](S(C)(=O)=O)CC2)c(Cl)c1-c1ccc(C[C@@H](C)C(F)(F)F)cc1OC [Example 36, 4-Chloro-1-ethyl-N-(((1s,4S)-1-hydroxy-4-(methylsulfonyl)cyclohexyl)methyl)-5-(2-methoxy-4-((R)-3,3,3-trifluoro-2-methylpropyl)phenyl)-1H-pyrazole-3-carboxamide]

- inhibition at 2 µM [1]: 96%
Structure (SMILES): [2H]C([2H])([2H])Oc1cc(CC(C)(C)C(F)(F)F)ccc1-c1c(Cl)c(C(=O)NC[C@]2(O)CC[C@@H](S(C)(=O)=O)CC2)nn1CC [Example 192, 4-Chloro-1-ethyl-N-(((1s,4s)-1-hydroxy-4-(methylsulfonyl)cyclohexyl)methyl)-5-(2-(methoxy-d3)-4-(3,3,3-trifluoro-2,2-dimethylpropyl)phenyl)-1H-pyrazole-3-carboxamide]

- inhibition at 3 µM [2]: 92%
Structure (SMILES): CCn1nc(C(=O)NC[C@]2(O)CC[C@@H](S(C)(=O)=O)CC2)c(Cl)c1-c1ccc([C@@H](O)C(C)(C)C(F)(F)F)cc1OC(F)F (single isomer, unassigned) [Example 108, 4-Chloro-5-(2-(difluoromethoxy)-4-((R*)-3,3,3-trifluoro-1-hydroxy-2,2-dimethylpropyl)phenyl)-1-ethyl-N-(((1s,4S)-1-hydroxy-4-(methylsulfonyl)cyclohexyl)methyl)-1H-pyrazole-3-carboxamide]

- inhibition at 3 µM [2]: 85%
Structure (SMILES): CCn1nc(C(=O)NC[C@]2(O)CC[C@@H](S(C)(=O)=O)CC2)c(Cl)c1-c1ccc([C@@](C)(O)CCC(F)(F)F)cc1OC(F)F (single isomer, unassigned) [Example 102, 4-Chloro-5-(2-(difluoromethoxy)-4-((S*)-5,5,5-trifluoro-2-hydroxypentan-2-yl)phenyl)-1-ethyl-N-(((1s,4R)-1-hydroxy-4-(methylsulfonyl)cyclohexyl)methyl)-1H-pyrazole-3-carboxamide]

- inhibition at 0.67 µM (HEK-293T, 0.67 μM compound concentration (footnote ****), read-out: RORγt (FL) Reporter Assay A or B, % inhibition): 97%
Structure (SMILES): CCn1nc(C(=O)NC[C@]2(O)CC[C@@H](S(C)(=O)=O)CC2)c(Cl)c1-c1ccc(C[C@H](C)C(F)(F)F)cc1OC (single isomer, unassigned) [Example 37, 4-Chloro-1-ethyl-N-(((1s,4R)-1-hydroxy-4-(methylsulfonyl)cyclohexyl)methyl)-5-(2-methoxy-4-((S*)-3,3,3-trifluoro-2-methylpropyl)phenyl)-1H-pyrazole-3-carboxamide]
